Assays:
[1] = Pre-formulation studies: solubility of Compound A; assay type: physicochemical; conditions: in the solvents customarily used in the fatty phases of topical emulsions
Experimental: (§1) In order to produce an oil-in-water (O/W) emulsion according to the invention, pre-formulation studies were carried out in order to reveal the excipients enabling good solubilization and also good stability of the active agent.

[2] = Stability of Compound A in its principal oily solvents (determined by HPLC); assay type: physicochemical; conditions: limits 95%-105% relative to T0
Experimental: as §1
Stability of Compound A in its Principal Oily Solvents (Determined by HPLC)
(§2) The limits set for good stability are 95%-105% as relative percentage with respect to T0.

[3] = Stability of Compound A in mixtures of excipients (solvent/surfactants), determined by HPLC; assay type: physicochemical; conditions: limits 95%-105% relative to T0
Description: as §2

[4] = "Single time" cutaneous penetration study, Franz cell, 16 h; assay type: in vitro ADME; conditions: 16 h application, ex vivo human skin, FIG. 1; stratum corneum, epidermis, dermis, receiving liquid
Description: The in vitro tests are developed on glass diffusion cells (termed “Franz cells”) or Teflon diffusion cells, in static or dynamic modes. The cells consist of two compartments, a donor compartment and a receiver compartment, separated by a membrane, the orientation of which may be vertical or horizontal.
The membranes have a surface area generally of between 1 and 4 cm^2; they can be synthetic (cellulose, polydimethylsiloxane, etc.), but animal or human skin biopsies are preferable.
Samples of receiver liquid can be taken, at regular times over the course of 24 hours, in order to enable the establishment of the kinetics of diffusion through the skin when this proves necessary. At the end of a maximum of 24 h of application, in the case of the pharmaceutical and cosmetic products, the Franz cells are dismantled, and the substance studied is quantified in the following compartments: formulation remains, stratum corneum, epidermidis, dermis, and receiver liquid. The mass balance can in this case be established, which makes it possible to quantify the “absorbed” doses (present in the receiver liquid), the doses “having penetrated” (present in the viable epidermidis and the dermis) and the “nonabsorbed” doses (present in the formulation remains and the stratum corneum).
Two types of cutaneous penetration studies on human skin ex vivo were therefore carried out. […]

CC(C)(C)c1cc(-c2cc(-c3ccc(C(=O)O)cc3)ccc2OCCO)ccc1N1CCCC1 [Compound A, 3″-Tert-butyl-4′-(2-hydroxyethoxy)-4″-pyrrolidin-1-yl[1,1′;3′,1″]terphenyl-4-carboxylic acid]
Solubility [1]: low solubility
Stability results ([2]; Compound A 0.005% in Miglyol 812N (Caprylic/capric triglycerides), 40° C.): Stable/Ok 6 Months
Stability results ([2]; Compound A 0.005% in Sweet almond oil, 40° C.): Stable/Ok 6 Months
Stability results ([2]; Compound A 0.05% in Arlacel 83V Pharma (Sorbitan Sesquioleate), 40° C.): Stable/Ok 6 Months
Stability results ([2]; Compound A 0.05% in Arlamol E (PPG-15 stearyl ether), 40° C.): Stable/Ok 6 Months
Stability results ([2]; Compound A 0.05% in Arlasolve DMI (Dimethyl Isosorbide)): Unstable
Stability results ([2]; Compound A 0.05% in Benzyl alcohol): Unstable
Stability results ([2]; Compound A 0.05% in Brij 30 (Laureth-4)): Unstable
Stability results ([2]; Compound A 0.05% in Capryol 90 (Propylene glycol monocaprylate), 40° C.): Stable/Ok 6 Months
Stability results ([2]; Compound A 0.05% in Dipropylene Glycol Care (Dipropylene glycol)): Unstable
Stability results ([2]; Compound A 0.05% in Eutanol G (Octyldodecanol)): Unstable
Stability results ([2]; Compound A 0.05% in Labrafil M1944CS (Apricot Kernel Oil PEG-6 Ester), 40° C.): Stable/Ok 6 Months
Stability results ([2]; Compound A 0.05% in Lauroglycol FCC (Propylene glycol laurate), 40° C.): Stable/Ok 6 Months
Stability results ([2]; Compound A 0.05% in Myritol PC (Propylene glycol dicaprylate/dicaprate)): Unstable
Stability results ([2]; Compound A 0.05% in Phenoxetol (Phenoxyethanol), 40° C.): Stable/Ok 6 Months
Stability results ([3]; Compound A 0.05% in Arlacel 165/Lauroglycol FCC): Unstable
Stability results ([3]; Compound A 0.05% in Cremophor EL/Labrafil M1944CS): Unstable
Stability results ([3]; Compound A 0.05% in Cremophor EL/Lauroglycol FCC): Unstable
Stability results ([3]; Compound A 0.05% in GlucateSS-Glucamate SSE-20/Arlamol E): Unstable
Stability results ([3]; Compound A 0.05% in Tween 80/Arlamol E): Unstable
Stability results ([3]; Compound A 0.2% in Cremophor EL/Labrafil M1944CS): Unstable
Stability results ([3]; Compound A 0.2% in Tween 80/Hexylene glycol): Unstable
Stability results ([3]; Compound A 0.2% in Tween 80/Lauroglycol FCC): Unstable
Distribution profile of compound A in the various skin compartments [4]: preferential localization and an accumulation of compound A in the stratum corneum and, less preferentially, in the epidermis

Source: patent US9855244B2, “O/W-emulsion-type topical pharmaceutical compositions containing a retinoid” (GALDERMA RESEARCH & DEVELOPMENT, priority 2012, dated 2018)
